# In patent US11952384B2, “Anti-tumor compound and preparation method and use thereof” (DUALITY BIOLOGICS (SUZHOU) CO., LTD., priority 2020, dated 2024):
# Tests used:
# MDA-MB-231 cells = test: Inhibition of in vitro proliferation of tumor cells by compounds (CTG, 6 days); assay type: cell-based; settings: Homo sapiens, MDA-MB-231, 144 h, read-out: MDA-MB-231 IC50 (nM)
# Protocol: To test the inhibitory activity of the pharmaceutical compounds on the in vitro proliferation of NCI-N87, JIMT-1 and MBA-MB-231 tumor cells. The cells were treated with compounds at different concentrations in vitro, and after 6 days of culture, the proliferation of cells was detected using CTG (CellTiter-Glo® Luminescent Cell Viability Assay, Promega, Cat. No. G7558) reagents, and the in vitro activity of the compounds was evaluated according to the IC50 value. • 1. Culturing of cells: NCI-N87/JIMT-1/MBA-MB-231 cells were cultured in RPMI-1640 medium containing 10% FBS. • 2. Preparation of cells: NCI-N87/JIMT-1/MBA-MB-231 cells in logarithmic phase were taken, washed with PBS once, and digested with 2-3 mL of trypsin for 2-3 min. After the cells were digested completely, 10-15 mL of cell culture was added to elute the digested cells. The eluate was centrifuged at 1000 rpm for 5 min, and the supernatant was discarded. The resulting cells were resuspended in 10-20 mL of cell culture to obtain a single cell suspension. • 3. Cell plating: the NCI-N87/JIMT-1/MBA-MB-231 single cell suspension was mixed well and adjusted to a viable cell density of 6×10^4 cells/mL with cell culture. The cell suspension with the adjusted density was mixed well and added to a 96-well cell culture plate at 50 μL/well. The culture plate was incubated in an incubator for 18 h (37° C., 5% CO2). • 4. Preparation of compounds: the compounds were dissolved in DMSO to obtain stock solutions at an initial concentration of 10 mM. There were 8 concentrations in total for the small molecule compounds: 300 nM, 100 nM, 30 nM, 10 nM, 3 nM, 1 nM, 0.3 nM, and 0.1 nM. • 5. Sample adding: the prepared samples to be detected at different concentrations were added to the culture plate, and two duplicate wells were set for each sample. The culture plate was incubated in an incubator for 6 days (37° C., 5% CO2). • 6. Color developing: the 96-well cell culture plate was taken out, added with the CTG reagent at 50 μL/well, and incubated at room temperature for 10 min. • 7. Plate reading: the 96-well cell culture plate was taken out, placed in a microplate reader, and measured for the chemiluminescence using the microplate reader. Data analysis: data were processed and analyzed using Microsoft Excel and Graphpad Prism 5.
# P-gp = biological target: T1, P-gp (Homo sapiens, UniProt P08183); test: Study on transporter substrates in Caco-2 cell model; assay type: in vitro ADME; settings: Caco-2 cell model
# T1 construct: endogenous in cells; host or cells: Caco-2
# T1 sequence (P08183 whole entry): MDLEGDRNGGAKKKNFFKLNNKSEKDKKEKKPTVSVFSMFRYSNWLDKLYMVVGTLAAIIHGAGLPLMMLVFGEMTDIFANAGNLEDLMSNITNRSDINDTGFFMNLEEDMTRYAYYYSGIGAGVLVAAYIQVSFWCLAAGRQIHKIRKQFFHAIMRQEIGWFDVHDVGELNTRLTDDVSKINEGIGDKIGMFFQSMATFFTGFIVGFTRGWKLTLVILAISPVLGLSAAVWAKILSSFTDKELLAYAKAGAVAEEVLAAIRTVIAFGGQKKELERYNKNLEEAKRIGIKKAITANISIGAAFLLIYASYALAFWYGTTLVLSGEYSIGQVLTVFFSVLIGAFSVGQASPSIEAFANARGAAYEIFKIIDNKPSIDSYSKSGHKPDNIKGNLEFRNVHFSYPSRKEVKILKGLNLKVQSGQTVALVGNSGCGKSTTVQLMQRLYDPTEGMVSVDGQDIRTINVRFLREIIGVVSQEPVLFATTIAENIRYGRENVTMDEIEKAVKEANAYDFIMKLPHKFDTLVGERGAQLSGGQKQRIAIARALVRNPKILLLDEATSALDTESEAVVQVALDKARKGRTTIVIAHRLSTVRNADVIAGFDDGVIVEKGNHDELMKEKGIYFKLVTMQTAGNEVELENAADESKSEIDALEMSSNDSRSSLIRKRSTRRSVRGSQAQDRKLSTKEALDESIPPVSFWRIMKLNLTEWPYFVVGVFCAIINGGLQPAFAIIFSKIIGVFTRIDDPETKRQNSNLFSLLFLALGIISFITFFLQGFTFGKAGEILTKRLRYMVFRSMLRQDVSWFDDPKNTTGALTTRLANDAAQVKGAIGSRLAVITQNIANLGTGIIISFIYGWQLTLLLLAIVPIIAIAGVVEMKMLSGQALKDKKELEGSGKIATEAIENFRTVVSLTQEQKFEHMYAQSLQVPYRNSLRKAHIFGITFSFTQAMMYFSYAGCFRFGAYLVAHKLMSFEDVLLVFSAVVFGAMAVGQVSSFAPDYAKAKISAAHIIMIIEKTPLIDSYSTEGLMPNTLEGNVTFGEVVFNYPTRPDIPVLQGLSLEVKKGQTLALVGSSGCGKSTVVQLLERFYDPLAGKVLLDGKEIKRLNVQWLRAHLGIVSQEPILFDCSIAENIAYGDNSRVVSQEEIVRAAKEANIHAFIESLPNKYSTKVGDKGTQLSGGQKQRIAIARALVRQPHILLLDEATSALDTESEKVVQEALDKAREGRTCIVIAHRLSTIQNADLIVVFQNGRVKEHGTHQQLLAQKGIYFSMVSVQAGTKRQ
# Protocol: The resistance of each well was recorded. […] 2. […] The plate was vortexed for 10 min. The samples were centrifuged. […] HBSS was added to the basolateral compartment. […] 3. Data Analysis
# Data were calculated using Microsoft Excel.
# BCRP = biological target: T2, BCRP (Homo sapiens, UniProt Q9UNQ0); test: as above
# T2 sequence (Q9UNQ0 1-655): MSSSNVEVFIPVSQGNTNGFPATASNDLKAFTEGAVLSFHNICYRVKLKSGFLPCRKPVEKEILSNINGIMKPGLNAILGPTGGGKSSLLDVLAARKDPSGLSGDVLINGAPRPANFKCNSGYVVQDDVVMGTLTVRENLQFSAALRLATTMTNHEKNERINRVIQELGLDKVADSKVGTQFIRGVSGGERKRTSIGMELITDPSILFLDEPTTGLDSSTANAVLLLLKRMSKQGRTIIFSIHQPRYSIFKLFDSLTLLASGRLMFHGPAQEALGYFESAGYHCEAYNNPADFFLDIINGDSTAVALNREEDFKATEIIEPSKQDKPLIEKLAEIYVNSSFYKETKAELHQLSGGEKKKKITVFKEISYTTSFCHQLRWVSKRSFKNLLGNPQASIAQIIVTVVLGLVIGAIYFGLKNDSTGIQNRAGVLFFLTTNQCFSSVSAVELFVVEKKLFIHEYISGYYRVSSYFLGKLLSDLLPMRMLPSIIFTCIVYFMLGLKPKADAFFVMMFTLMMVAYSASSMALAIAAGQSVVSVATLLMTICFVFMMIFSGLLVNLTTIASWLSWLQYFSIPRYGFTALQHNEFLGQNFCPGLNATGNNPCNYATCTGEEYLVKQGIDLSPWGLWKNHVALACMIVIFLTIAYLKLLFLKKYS
# Protocol: To investigate whether the compounds of the present invention is a substrate for efflux transporters P-gp and BCRP in a Caco-2 cell model, thereby providing preclinical basis for analyzing the drug-drug interaction in pharmacokinetics.
# • 1) Cell culture medium was added to each well of the Transwell. The HTS Transwell plate was incubated under conditions of 37° C. and 5% CO2 for 1 h prior to cell inoculation. • 2) Caco-2 cells were diluted with culture medium and the cell suspension was dispensed into filter wells of the 96-well HTS Transwell plate. […] The cell culture medium was changed periodically. • 3) Monolayer cell resistance was measured using the Millicell Epithelial Volt-Ohm detection system. The resistance of each well was recorded. After all wells were measured, the Transwell plate was put back into the incubator. TEER of each well was calculated according to the formula. The TEER value of each well should be greater than 230 ohm·cm^2. […] Preparation for Transporter Test • 1) The Caco-2 plate was taken out from the incubator. The monolayer cells were washed with pre-heated HBSS twice. The plate was then incubated at 37° C. for 30 min. • 2) Stock solutions of the compounds were prepared in DMSO and diluted with HBSS to obtain working solutions. Digoxin was used as a reference substrate for P-gp and rosuvastatin was used as a reference substrate for BCRP. Propranolol was used as a high permeability marker. • 3) The working solution (without inhibitor) was added to the Transwell insert (apical compartment) to determine the rate of drug transport in the apical to basolateral direction. The transfer buffer was added to the wells in the receiver plate (basolateral compartment). The working solution (without inhibitor) was added to the receiver plate wells (basolateral compartment) to determine the rate of drug transport in the basolateral to apical direction. The Transwell insert (apical compartment) was filled with the transport buffer. PSC833 was added to the apical and basolateral compartments to determine the rate of drug transport in the presence of P-gp inhibitors. • 4) The sample was transferred from the working solution to the quenching solution, and a sample with a time of 0 was prepared. The Transwell plate was incubated under conditions of 37° C. and 5% CO2 for 2 h. • 5) At the end of the transport cycle, the samples were transferred from the apical and basolateral wells into a new 96-well plate. Cold acetonitrile or methanol containing the appropriate internal standard (IS) was added to each well of the plate. The plate was vortexed for 10 min. The samples were centrifuged. The supernatant of an aliquot was mixed with an appropriate amount of ultrapure water (depending on the LC-MS/MS signal response and peak shape) prior to the LC-MS/MS analysis. • 6) The stock solution of lucifer yellow in DMSO was prepared and diluted with HBSS to determine the amount of lucifer yellow leakage after a 2-hour transport period. The lucifer yellow solution was added to the apical compartment. HBSS was added to the basolateral compartment. The plate was incubated at 37° C. for 30 min, and a certain amount of the solution was directly taken from the apical and basolateral wells and transferred to a new 96-well plate. The lucifer yellow fluorescence was measured in a fluorescence plate reader with 485 nm excitation and 530 nm emission (to monitor monolayer integrity).
# Data were calculated using Microsoft Excel. The percentage of the compound remaining at each time point was estimated by determining the peak area ratio from the extracted ion chromatogram.
# For drug transport analysis in the Caco-2 cell model, the apparent permeability coefficient (Papp) can be calculated according to the following formula, in cm/s:
# [formula] • wherein the concentration C is in nM, the volume V is in μL, the time T is in s, and the area S is in cm^2.
# The recovery rate is calculated according to the following formula:
# JIMT-1 cells = test: Inhibition of in vitro proliferation of tumor cells by compounds (CTG, 6 days); assay type: cell-based; settings: Homo sapiens, JIMT-1, 144 h, read-out: JIMT-1 IC50 (nM)
# Protocol: (§1) To test the inhibitory activity of the pharmaceutical compounds on the in vitro proliferation of NCI-N87, JIMT-1 and MBA-MB-231 tumor cells. The cells were treated with the compounds at different concentrations in vitro, and after 6 days of culture, the proliferation of cells was detected using the CTG (CellTiter-Glo® Luminescent Cell Viability Assay, Promega, Cat. No. G7558) reagent, and the in vitro activity of the compounds was evaluated according to the IC50 value.
# (§2) In the following, the test for the inhibition of the in vitro proliferation of NCI-N87 cells was taken as an example to illustrate the method of the present application for testing the inhibitory activity of the compounds of the present application on the in vitro proliferation of tumor cells. The method was also applicable to, but not limited to, the test for the inhibitory activity on the in vitro proliferation of other tumor cells. • 1. Culturing of cells: NCI-N87 cells were cultured in RPMI-1640 medium containing 10% FBS. • 2. Preparation of cells: NCI-N87 cells in logarithmic phase were taken, washed with PBS once, and digested with 2-3 mL of trypsin for 2-3 min. After the cells were digested completely, 10-15 mL of cell culture was added to elute the digested cells. The eluate was centrifuged at 1000 rpm for 5 min, and the supernatant was discarded. The resulting cells were resuspended in 10-20 mL of cell culture to obtain a single cell suspension. • 3. Cell plating: the NCI-N87 single cell suspension was mixed well and adjusted to a viable cell density of 6×10^4 cells/mL with cell culture. The cell suspension with the adjusted density was mixed well and added to a 96-well cell culture plate at 50 μL/well. The culture plate was incubated in an incubator for 18 h (37° C., 5% CO2). • 4. Preparation of compounds: the compounds were dissolved in DMSO to obtain stock solutions at an initial concentration of 10 mM. There were 8 concentrations in total for the small molecule compounds: 300 nM, 100 nM, 30 nM, 10 nM, 3 nM, 1 nM, 0.3 nM, and 0.1 nM. • 5. Sample adding: the prepared samples to be detected at different concentrations were added to the culture plate, and two duplicate wells were set for each sample. The culture plate was incubated in an incubator for 6 days (37° C., 5% CO2). • 6. Color developing: the 96-well cell culture plate was taken out, added with the CTG reagent at 50 μL/well, and incubated at room temperature for 10 min. • 7. Plate reading: the 96-well cell culture plate was taken out, placed in a microplate reader, and measured for the chemiluminescence using the microplate reader. Data Analysis
# (§3) Data were processed and analyzed using Microsoft Excel and Graphpad Prism 5.
# (§4) To test the inhibitory activity of the pharmaceutical compounds on the in vitro proliferation of NCI-N87, JIMT-1 and MBA-MB-231 tumor cells. The cells were treated with compounds at different concentrations in vitro, and after 6 days of culture, the proliferation of cells was detected using CTG (CellTiter-Glo® Luminescent Cell Viability Assay, Promega, Cat. No. G7558) reagents, and the in vitro activity of the compounds was evaluated according to the IC50 value. • 1. Culturing of cells: NCI-N87/JIMT-1/MBA-MB-231 cells were cultured in RPMI-1640 medium containing 10% FBS. • 2. Preparation of cells: NCI-N87/JIMT-1/MBA-MB-231 cells in logarithmic phase were taken, washed with PBS once, and digested with 2-3 mL of trypsin for 2-3 min. After the cells were digested completely, 10-15 mL of cell culture was added to elute the digested cells. The eluate was centrifuged at 1000 rpm for 5 min, and the supernatant was discarded. The resulting cells were resuspended in 10-20 mL of cell culture to obtain a single cell suspension. • 3. Cell plating: the NCI-N87/JIMT-1/MBA-MB-231 single cell suspension was mixed well and adjusted to a viable cell density of 6×10^4 cells/mL with cell culture. […]
# NCI-N87 cells = test: as above; assay type: cell-based; settings: Homo sapiens, NCI-N87, 144 h, read-out: NCI-N87 IC50 (nM)
# Protocol: as §1, §2, §3, §4
SMILES,IC50 (MDA-MB-231 cells),IC50 (JIMT-1 cells),also measured
"CC[C@@]1(O)C(=O)OCc2c1cc1n(c2=O)Cc2c-1nc1cc(F)c(C)c3c1c2[C@@H](NC(=O)C[C@H](C)N)CC3 [P-III-28, (S)-3-amino-N-((1S,9S)-9-ethyl-5-fluoro-9-hydroxy-4-methyl-10,13-dioxo-2,3,9,10,13,15-hexahydro-1H,12H-benzo[de]pyrano[3′,4′:6,7]indolizino[1,2-b]quinolin-1-yl)butanamide]",1.2 nM,–,–
"CC[C@@]1(O)C(=O)OCc2c1cc1n(c2=O)Cc2c-1nc1cc(F)c(C)c3c1c2[C@@H](NC(=O)CCNC)CC3 [P-III-9, N-((1S,9S)-9-ethyl-5-fluoro-9-hydroxy-4-methyl-10,13-dioxo-2,3,9,10,13,15-hexahydro-1H,12H-benzo[de]pyrano[3′,4′:6,7]indolizino[1,2-b]quinolin-1-yl)-3-methylaminopropanamide]",28.9 nM,–,–
"CC[C@@]1(O)C(=O)OCc2c1cc1n(c2=O)Cc2c-1nc1cc(F)c(C)c3c1c2[C@@H](NC(=O)CO)CC3 [Dxd, reference compound]",–,–,"P-gp substrate (P-gp): not a transporter P-gp substrate; Recovery rate (%) AP-BL (BCRP; Caco-2, KO143 +): 76.51%; Recovery rate (%) BL-AP (BCRP; Caco-2, KO143 +): 74.87%; Efflux ratio (BCRP; Caco-2, KO143 −): 74.03; Recovery rate (%) AP-BL (BCRP; Caco-2, KO143 −): 57.76%; Recovery rate (%) BL-AP (BCRP; Caco-2, KO143 −): 56.20%; Papp (A-B) (10^−6, cm/s) (BCRP; Caco-2, KO143 −, 2 h): 0.07 10^−6, cm/s; Papp (B-A) (10^−6, cm/s) (BCRP; Caco-2, KO143 −, 2 h): 4.82 10^−6, cm/s; BCRP substrate (BCRP; Caco-2 cell model, from rate of change of efflux ratio): transporter BCRP substrate and Yes"
"CC[C@@]1(O)C(=O)OCc2c1cc1n(c2=O)Cc2c-1nc1cc(F)c(C)c3c1c2[C@@H](NC(=O)c1ccc(O)cc1)CC3 [P-II-23, N-((1S,9S)-9-ethyl-5-fluoro-9-hydroxy-4-methyl-10,13-dioxo-2,3,9,10,13,15-hexahydro-1H,12H-benzo[de]pyrano[3′,4′:6,7]indolizino[1,2-b]quinolin-1-yl)-4-hydroxybenzamide-1-carboxamide]",7.7 nM,–,–
"CC[C@@]1(O)C(=O)OCc2c1cc1n(c2=O)Cc2c-1nc1cc(F)c(C)c3c1c2[C@@H](NC(=O)c1ccc(O)cn1)CC3 [P-II-24, N-((1S,9S)-9-ethyl-5-fluoro-9-hydroxy-4-methyl-10,13-dioxo-2,3,9,10,13,15-hexahydro-1H,12H-benzo[de]pyrano[3′,4′:6,7]indolizino[1,2-b]quinolin-1-yl)-5-hydroxypicolinamide]",8.5 nM,20.8 nM,–
"CC[C@@]1(O)C(=O)OCc2c1cc1n(c2=O)Cc2c-1nc1cc(F)c(C)c3c1c2[C@@H](NC(=O)C[C@@H](N)CO)CC3 [P-III-29, (R)-3-amino-N-((1S,9S)-9-ethyl-5-fluoro-9-hydroxy-4-methyl-10,13-dioxo-2,3,9,10,13,15-hexahydro-1H,12H-benzo[de]pyrano[3′,4′:6,7]indolizino[1,2-b]quinolin-1-yl)-4-hydroxybutanamide]",8.6 nM,16.7 nM,–
"CC[C@@]1(O)C(=O)OCc2c1cc1n(c2=O)Cc2c-1nc1cc(F)c(C)c3c1c2[C@@H](NC(=O)CC(C)(C)O)CC3 [P-III-21, N-((1S,9S)-9-ethyl-5-fluoro-9-hydroxy-4-methyl-10,13-dioxo-2,3,9,10,13,15-hexahydro-1H,12H-benzo[de]pyrano[3′,4′:6,7]indolizino[1,2-b]quinolin-1-yl)-3-hydroxy-3-methylbutanamide]",2.88 nM,2.87 nM,IC50 (NCI-N87 cells): 4.75 nM
"CC[C@@]1(O)C(=O)OCc2c1cc1n(c2=O)Cc2c-1nc1cc(F)c(C)c3c1c2[C@@H](NC(=O)CS)CC3 [P-III-1, N-((1S,9S)-9-ethyl-5-fluoro-9-hydroxy-4-methyl-10,13-dioxo-2,3,9,10,13,15-hexahydro-1H,12H-benzo[de]pyrano[3′,4′:6,7]indolizino[1,2-b]quinolin-1-yl)-2-mercaptoacetamide]",28.9 nM,–,–
